Laboratory results as given in the NIST ThermoML archive (doi:10.1016/j.tca.2013.02.009).
± gives the expanded uncertainty stated by the source.

Test: molar heat capacity at constant pressure
Details: 101.33 kPa, Crystal, Large sample (1 g) DSC

## [O-2].[O-2].[O-2].[Y+3].[Y+3] [yttrium oxide (Y2O3)]
603 K
  molar heat capacity at constant pressure: 122.98 ± 5.2 J/K/mol
613 K
  molar heat capacity at constant pressure: 123.25 ± 5.2 J/K/mol
623 K
  molar heat capacity at constant pressure: 123.52 ± 5.2 J/K/mol
633 K
  molar heat capacity at constant pressure: 123.77 ± 5.2 J/K/mol
643 K
  molar heat capacity at constant pressure: 124 ± 5.3 J/K/mol
653 K
  molar heat capacity at constant pressure: 124.22 ± 5.3 J/K/mol
663 K
  molar heat capacity at constant pressure: 124.43 ± 5.3 J/K/mol
673 K
  molar heat capacity at constant pressure: 124.63 ± 5.3 J/K/mol
683 K
  molar heat capacity at constant pressure: 124.82 ± 5.3 J/K/mol
693 K
  molar heat capacity at constant pressure: 125 ± 5.3 J/K/mol
703 K
  molar heat capacity at constant pressure: 125.16 ± 5.3 J/K/mol
713 K
  molar heat capacity at constant pressure: 125.32 ± 5.3 J/K/mol
723 K
  molar heat capacity at constant pressure: 125.47 ± 5.3 J/K/mol
733 K
  molar heat capacity at constant pressure: 125.62 ± 5.3 J/K/mol
743 K
  molar heat capacity at constant pressure: 125.75 ± 5.3 J/K/mol
753 K
  molar heat capacity at constant pressure: 125.88 ± 5.3 J/K/mol
763 K
  molar heat capacity at constant pressure: 126 ± 5.3 J/K/mol
773 K
  molar heat capacity at constant pressure: 126.12 ± 5.3 J/K/mol
783 K
  molar heat capacity at constant pressure: 126.22 ± 5.4 J/K/mol
793 K
  molar heat capacity at constant pressure: 126.33 ± 5.4 J/K/mol
803 K
  molar heat capacity at constant pressure: 126.42 ± 5.4 J/K/mol
813 K
  molar heat capacity at constant pressure: 126.52 ± 5.4 J/K/mol
823 K
  molar heat capacity at constant pressure: 126.6 ± 5.4 J/K/mol
833 K
  molar heat capacity at constant pressure: 126.68 ± 5.4 J/K/mol
843 K
  molar heat capacity at constant pressure: 126.76 ± 5.4 J/K/mol
853 K
  molar heat capacity at constant pressure: 126.83 ± 5.4 J/K/mol
863 K
  molar heat capacity at constant pressure: 126.9 ± 5.4 J/K/mol
873 K
  molar heat capacity at constant pressure: 126.97 ± 5.4 J/K/mol
883 K
  molar heat capacity at constant pressure: 127.03 ± 5.4 J/K/mol
893 K
  molar heat capacity at constant pressure: 127.09 ± 5.4 J/K/mol
903 K
  molar heat capacity at constant pressure: 127.14 ± 5.4 J/K/mol
913 K
  molar heat capacity at constant pressure: 127.19 ± 5.4 J/K/mol
923 K
  molar heat capacity at constant pressure: 127.24 ± 5.4 J/K/mol
933 K
  molar heat capacity at constant pressure: 127.28 ± 5.4 J/K/mol
943 K
  molar heat capacity at constant pressure: 127.32 ± 5.4 J/K/mol
953 K
  molar heat capacity at constant pressure: 127.36 ± 5.4 J/K/mol
963 K
  molar heat capacity at constant pressure: 127.4 ± 5.4 J/K/mol
973 K
  molar heat capacity at constant pressure: 127.43 ± 5.4 J/K/mol
983 K
  molar heat capacity at constant pressure: 127.46 ± 5.4 J/K/mol
993 K
  molar heat capacity at constant pressure: 127.49 ± 5.4 J/K/mol
1003 K
  molar heat capacity at constant pressure: 127.52 ± 5.4 J/K/mol
1013 K
  molar heat capacity at constant pressure: 127.54 ± 5.4 J/K/mol
1023 K
  molar heat capacity at constant pressure: 127.57 ± 5.4 J/K/mol
1033 K
  molar heat capacity at constant pressure: 127.59 ± 5.4 J/K/mol
1043 K
  molar heat capacity at constant pressure: 127.61 ± 5.4 J/K/mol
1053 K
  molar heat capacity at constant pressure: 127.62 ± 5.4 J/K/mol
1063 K
  molar heat capacity at constant pressure: 127.64 ± 5.4 J/K/mol
1073 K
  molar heat capacity at constant pressure: 127.65 ± 5.4 J/K/mol
1083 K
  molar heat capacity at constant pressure: 127.66 ± 5.4 J/K/mol
1093 K
  molar heat capacity at constant pressure: 127.67 ± 5.4 J/K/mol
1103 K
  molar heat capacity at constant pressure: 127.68 ± 5.4 J/K/mol
1113 K
  molar heat capacity at constant pressure: 127.68 ± 5.4 J/K/mol
1123 K
  molar heat capacity at constant pressure: 127.68 ± 5.4 J/K/mol
1133 K
  molar heat capacity at constant pressure: 127.69 ± 5.4 J/K/mol
1143 K
  molar heat capacity at constant pressure: 127.69 ± 5.4 J/K/mol
1153 K
  molar heat capacity at constant pressure: 127.69 ± 5.4 J/K/mol
1163 K
  molar heat capacity at constant pressure: 127.7 ± 5.4 J/K/mol
1173 K
  molar heat capacity at constant pressure: 127.7 ± 5.4 J/K/mol
1183 K
  molar heat capacity at constant pressure: 127.7 ± 5.4 J/K/mol
1193 K
  molar heat capacity at constant pressure: 127.7 ± 5.4 J/K/mol
1203 K
  molar heat capacity at constant pressure: 127.69 ± 5.4 J/K/mol
